Experimental data published in PMC4648050, “Discovery of Inhibitors of Trypanosoma brucei by Phenotypic Screening of a Focused Protein Kinase Library” (Chemmedchem, 2015).
In brackets after ≈: the same amount, converted by molar mass. Blank lines part the entries; values can stand above or below the compound they belong to.

Experiments:
[1] = tested on: MRC5 cells (human lung fibroblasts); test: MRC5 proliferation assay; type: cell-based; settings: geometric mean of two or more determinations
Experimental: Trypanosome and MRC5 proliferation assay: Measurement of inhibition of the proliferation of MRC5 cells (human lung fibroblasts) and T. brucei bloodstream-stage cells was performed using a modification of a cell viability assay previously described.[35, 36] Compounds ([…] to 0.5 nM) were incubated with 2×10^3 cells per well in 0.2 mL of the appropriate culture medium (MEM with 10 % foetal bovine serum for MRC5 cells) in clear 96-well plates. Plates were incubated at 37 °C in the presence of 5 % CO2 for 69 h. Resazurin was then added to a final concentration of 50 μM, and plates were incubated as above for a further 4 h before being read on a BioTek Flx800 fluorescence plate reader.

[2] = Kinetic aqueous solubility (laser nephelometry); type: physicochemical; settings: Milli-Q water with 2.5% DMSO, kinetic from dmso stock, range 250–12 μM, read-out: Aq. Sol. (aqueous kinetic solubility)
Experimental: Solubility experiments: The kinetic aqueous solubility of the test compounds was measured using laser nephelometry. Compounds were subject to serial dilution from 10 mM to 0.5 mM in DMSO. An aliquot was then mixed with Milli-Q H2O to obtain an aqueous dilution plate with a final concentration range of 250–12 μM, with a final DMSO concentration of 2.5 %. Triplicate aliquots were transferred to a flat-bottomed polystyrene plate which was immediately read on the NEPHELOstar (BMG Lab Technologies). The amount of laser scatter caused by insoluble particulates (relative nephelometry units, RNU) was plotted against compound concentration using a segmental regression fit, with the point of inflection being quoted as the compounds′ aqueous solubility (in μM).

ERK8 = target: T1, ERK8 (Homo sapiens, UniProt Q8TD08); test: Kinase panel: ERK8; type: biochemical, human/mammalian; settings: compound at 10 μM, read-out: % of activity respect of the control
T1 sequence (Q8TD08 1-544): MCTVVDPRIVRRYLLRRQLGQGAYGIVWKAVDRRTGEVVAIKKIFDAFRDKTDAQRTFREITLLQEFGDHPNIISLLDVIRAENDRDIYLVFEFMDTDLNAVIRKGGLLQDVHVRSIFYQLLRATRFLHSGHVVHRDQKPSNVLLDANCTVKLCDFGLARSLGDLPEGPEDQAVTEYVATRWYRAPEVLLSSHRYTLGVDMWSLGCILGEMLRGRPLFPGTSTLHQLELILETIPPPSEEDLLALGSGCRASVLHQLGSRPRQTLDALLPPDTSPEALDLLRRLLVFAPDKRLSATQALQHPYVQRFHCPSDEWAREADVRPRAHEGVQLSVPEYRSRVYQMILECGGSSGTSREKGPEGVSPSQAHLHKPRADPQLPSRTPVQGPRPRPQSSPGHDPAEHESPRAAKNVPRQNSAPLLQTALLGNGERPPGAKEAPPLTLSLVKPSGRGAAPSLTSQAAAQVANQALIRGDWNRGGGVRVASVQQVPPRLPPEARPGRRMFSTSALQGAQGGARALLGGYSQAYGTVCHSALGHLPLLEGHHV
Experimental: (§1) The DDU kinase-focused compound set contains lead-like scaffolds that are designed to target protein kinases; they have kinase hinge binding motifs. Four of the 1H-imidazopyrazinones were screened against a human/mammalian kinase panel at the University of Dundee (http://www.kinase-screen.mrc.ac.uk) at a concentration of 10 μM. At the time of testing the panel contained 79 mammalian kinases selected to provide a broad coverage of the mammalian kinome (∼500 kinases in the human genome).[3] None of the compounds were active against any of the kinases at 10 μM.

PRK2 = PRK2 (Homo sapiens, UniProt Q16513); test: Kinase panel: PRK2; type: biochemical, human/mammalian; settings: compound at 10 μM, read-out: % of activity respect of the control
Experimental: as §1

CK2 = CK2 (Homo sapiens, UniProt P68400); test: Kinase panel: CK2; type: biochemical, human/mammalian; settings: compound at 10 μM, read-out: % of activity respect of the control
Experimental: as §1

NEK2a = target: T2, NEK2a (Homo sapiens, UniProt P51955); test: Kinase panel: NEK2a; type: biochemical, human/mammalian; settings: compound at 10 μM, read-out: % of activity respect of the control
T2 sequence (P51955 1-445): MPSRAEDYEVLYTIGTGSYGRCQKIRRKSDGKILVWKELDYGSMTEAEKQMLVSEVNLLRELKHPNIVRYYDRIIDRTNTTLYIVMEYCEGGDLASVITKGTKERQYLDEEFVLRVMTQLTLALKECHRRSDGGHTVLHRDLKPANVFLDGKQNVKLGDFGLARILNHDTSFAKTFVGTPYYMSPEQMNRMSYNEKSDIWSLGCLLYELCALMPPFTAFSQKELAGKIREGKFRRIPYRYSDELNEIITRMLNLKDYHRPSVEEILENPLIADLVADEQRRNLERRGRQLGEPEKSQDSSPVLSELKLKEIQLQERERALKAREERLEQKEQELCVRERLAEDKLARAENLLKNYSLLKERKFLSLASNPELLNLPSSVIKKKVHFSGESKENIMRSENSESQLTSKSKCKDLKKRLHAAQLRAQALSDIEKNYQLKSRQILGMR
Experimental: as §1

NEK6 = NEK6 (Homo sapiens, UniProt Q9HC98); test: Kinase panel: NEK6; type: biochemical, human/mammalian; settings: compound at 10 μM, read-out: % of activity respect of the control
Experimental: as §1

EF2K = EF2K (Homo sapiens, UniProt O00418); test: Kinase panel: EF2K; type: biochemical, human/mammalian; settings: compound at 10 μM, read-out: % of activity respect of the control
Experimental: as §1

PAK5 = PAK5 (Homo sapiens, UniProt Q9P286); test: Kinase panel: PAK5; type: biochemical, human/mammalian; settings: compound at 10 μM, read-out: % of activity respect of the control
Experimental: as §1

Sequence of PAK5 (Q9P286 whole entry): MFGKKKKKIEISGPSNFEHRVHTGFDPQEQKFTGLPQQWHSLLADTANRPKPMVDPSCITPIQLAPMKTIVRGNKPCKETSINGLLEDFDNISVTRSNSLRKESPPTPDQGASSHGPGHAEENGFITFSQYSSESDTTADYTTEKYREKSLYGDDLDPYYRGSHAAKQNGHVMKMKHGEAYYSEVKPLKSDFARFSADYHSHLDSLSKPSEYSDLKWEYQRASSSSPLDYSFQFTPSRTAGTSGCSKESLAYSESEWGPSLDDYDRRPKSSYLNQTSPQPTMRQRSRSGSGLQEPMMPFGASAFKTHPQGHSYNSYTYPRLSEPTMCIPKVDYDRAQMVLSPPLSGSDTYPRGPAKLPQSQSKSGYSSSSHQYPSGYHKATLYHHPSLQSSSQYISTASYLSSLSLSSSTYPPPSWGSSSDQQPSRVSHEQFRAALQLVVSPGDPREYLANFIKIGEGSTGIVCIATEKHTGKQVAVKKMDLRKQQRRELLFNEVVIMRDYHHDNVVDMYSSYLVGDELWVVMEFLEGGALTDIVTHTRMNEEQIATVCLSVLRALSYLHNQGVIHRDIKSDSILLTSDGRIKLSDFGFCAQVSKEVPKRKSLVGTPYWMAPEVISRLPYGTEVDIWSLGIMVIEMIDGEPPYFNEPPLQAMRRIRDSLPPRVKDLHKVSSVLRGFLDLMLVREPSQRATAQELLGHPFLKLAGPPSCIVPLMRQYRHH
Sequence of CK2 (P68400 whole entry): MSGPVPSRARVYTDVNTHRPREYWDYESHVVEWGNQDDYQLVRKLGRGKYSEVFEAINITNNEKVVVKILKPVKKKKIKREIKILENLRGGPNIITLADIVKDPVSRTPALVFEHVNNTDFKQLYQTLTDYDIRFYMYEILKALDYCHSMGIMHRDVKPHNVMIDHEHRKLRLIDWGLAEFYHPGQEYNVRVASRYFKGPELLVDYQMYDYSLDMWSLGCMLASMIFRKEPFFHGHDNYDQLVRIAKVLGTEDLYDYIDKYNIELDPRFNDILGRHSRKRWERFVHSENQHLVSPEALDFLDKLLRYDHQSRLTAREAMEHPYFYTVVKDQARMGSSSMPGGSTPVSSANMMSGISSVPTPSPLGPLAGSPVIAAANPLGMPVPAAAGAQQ
Sequence of NEK6 (Q9HC98 whole entry): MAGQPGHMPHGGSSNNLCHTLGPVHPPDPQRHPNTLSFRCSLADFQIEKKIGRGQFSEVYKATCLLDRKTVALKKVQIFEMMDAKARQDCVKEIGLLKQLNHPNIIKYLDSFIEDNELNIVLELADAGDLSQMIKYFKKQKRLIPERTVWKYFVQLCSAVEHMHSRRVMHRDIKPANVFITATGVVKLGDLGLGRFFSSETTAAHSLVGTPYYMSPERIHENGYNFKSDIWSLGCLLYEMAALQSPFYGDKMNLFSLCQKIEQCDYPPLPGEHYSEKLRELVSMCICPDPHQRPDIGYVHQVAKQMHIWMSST
Sequence of PRK2 (Q16513 whole entry): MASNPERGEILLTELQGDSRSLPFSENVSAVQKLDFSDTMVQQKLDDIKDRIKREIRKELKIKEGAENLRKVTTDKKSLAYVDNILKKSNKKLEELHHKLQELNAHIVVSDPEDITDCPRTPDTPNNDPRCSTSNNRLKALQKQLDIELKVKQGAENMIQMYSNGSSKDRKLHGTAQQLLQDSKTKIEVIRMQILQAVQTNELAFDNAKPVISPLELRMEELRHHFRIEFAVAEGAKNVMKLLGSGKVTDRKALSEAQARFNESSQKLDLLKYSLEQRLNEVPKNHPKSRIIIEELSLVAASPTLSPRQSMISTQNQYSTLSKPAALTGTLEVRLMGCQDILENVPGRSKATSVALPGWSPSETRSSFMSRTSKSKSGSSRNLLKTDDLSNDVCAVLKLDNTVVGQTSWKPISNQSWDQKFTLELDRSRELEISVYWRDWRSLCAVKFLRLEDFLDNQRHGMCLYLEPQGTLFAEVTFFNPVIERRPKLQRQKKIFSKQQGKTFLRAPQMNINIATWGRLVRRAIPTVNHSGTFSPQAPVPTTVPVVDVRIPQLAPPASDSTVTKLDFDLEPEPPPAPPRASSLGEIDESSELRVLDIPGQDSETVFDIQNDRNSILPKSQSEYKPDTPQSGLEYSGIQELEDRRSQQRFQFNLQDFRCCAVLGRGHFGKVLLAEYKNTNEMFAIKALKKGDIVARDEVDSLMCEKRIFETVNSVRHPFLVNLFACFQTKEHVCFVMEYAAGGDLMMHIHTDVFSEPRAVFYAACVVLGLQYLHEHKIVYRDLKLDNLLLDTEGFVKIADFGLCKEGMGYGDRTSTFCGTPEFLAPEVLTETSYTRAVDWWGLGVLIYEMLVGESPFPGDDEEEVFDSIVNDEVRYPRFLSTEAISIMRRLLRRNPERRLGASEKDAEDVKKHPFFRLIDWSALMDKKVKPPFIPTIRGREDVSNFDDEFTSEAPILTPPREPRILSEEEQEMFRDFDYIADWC

solubility kinetic [2]: > 250 µM
SMILES: O=c1[nH]c2ncc(-c3ccccc3CO)nc2n1C1CCCCC1 [Compound 28]
EC50 [1]: > 50 µM

SMILES: C[C@H](c1ccccc1)n1c(=O)[nH]c2ncc(-c3ccccc3)nc21 [Compound 14, (R)-6-Phenyl-1-(1-phenylethyl)-1H-imidazo[4,5-b]pyrazin-2(3H)-one]
EC50 [1]: 26 µM
solubility kinetic [2]: < 12 µM
remaining activity at 10 µM (ERK8): 79%
remaining activity at 10 µM (PRK2): 97%
remaining activity at 10 µM (CK2): 105%
remaining activity at 10 µM (NEK2a): 96%
remaining activity at 10 µM (NEK6): 80%
remaining activity at 10 µM (EF2K): 79%
remaining activity at 10 µM (PAK5): 80%

SMILES: O=c1[nH]c2ncc(-c3ccc(F)cc3)nc2n1C1CCCCC1 [Compound 12, 1-Cyclohexyl-6-(4-fluorophenyl)-1H-imidazo[4,5-b]pyrazin-2(3H)-one]
EC50 [1]: > 50 µM
solubility kinetic [2]: 55 µM (≈ 17.2 µg/mL)
remaining activity at 10 µM (ERK8): 80%
remaining activity at 10 µM (PRK2): 112%
remaining activity at 10 µM (CK2): 111%
remaining activity at 10 µM (NEK2a): 93%
remaining activity at 10 µM (NEK6): 94%
remaining activity at 10 µM (EF2K): 98%
remaining activity at 10 µM (PAK5): 100%

SMILES: O=c1[nH]c2ncc(-c3ccc(F)cc3)nc2n1CC1CC1 [Compound 10]
EC50 [1]: > 50 µM
remaining activity at 10 µM (ERK8): 70%
remaining activity at 10 µM (PRK2): 99%
remaining activity at 10 µM (CK2): 105%
remaining activity at 10 µM (NEK2a): 101%
remaining activity at 10 µM (NEK6): 86%
remaining activity at 10 µM (EF2K): 92%
remaining activity at 10 µM (PAK5): 95%

SMILES: CC(c1ccccc1)n1c(=O)[nH]c2ncc(-c3ccc(F)cc3)nc21 (stereo not shown) [Compound 1]
EC50 [1]: > 50 µM
solubility kinetic [2]: < 12 µM
remaining activity at 10 µM (ERK8): 73%
remaining activity at 10 µM (PRK2): 111%
remaining activity at 10 µM (CK2): 107%
remaining activity at 10 µM (NEK2a): 117%
remaining activity at 10 µM (NEK6): 89%
remaining activity at 10 µM (EF2K): 93%
remaining activity at 10 µM (PAK5): 84%
